Reference: PMC3214022, “Plasmodium falciparum Parasites Are Killed by a Transition State Analogue of Purine Nucleoside Phosphorylase in a Primate Animal Model” (PLoS ONE, 2011)

Experiment: Weights, CBC, blood chemistry and signs of toxicity, Table S1 sheet PD-2 (infected Aotus, twice a day for seven days)
Type: in vivo, Aotus lemurinus lemurinus
Details: oral 10 mg/kg twice a day/7 days, 25044 Male (ITM2)
Method: Laboratory bred Aotus lemurinus lemurinus monkeys (0.75–0.89 kg) were maintained as described. […] Blood samples were collected before the treatment started (t = 0), 0.05 h, 0.5 h, 1 h, 2 h, 6 h, 24 h, 48 h, and 6, 12 and 18 days after the first dose from each monkey and processed as described below. Pharmacokinetic parameters were calculated using PKSolver. For efficacy studies, Aotus monkeys were inoculated intravenously with 5×10^6 parasites of the FVO strain of P. falciparum in an approved treatment protocol. […] Parasitaemia was determined by Giemsa-stained thick blood smears prepared daily from the marginal ear vein [41]. Blood samples were collected from each monkey and transferred to tubes containing lithium heparin, centrifuged and both plasma and blood cells were frozen at −80 °C until analysis. Animals received a physical examination and blood chemistry profiles were monitored after treatment as described previously. Any monkey not responding appropriately to treatment was cured of its infection with mefloquine (40 mg kg^−1). […] The day of clearance is defined as the first of three consecutive days in which the thick blood films are parasite negative. The day of recrudescence is the first of three consecutive days of positive thick blood films after a period of clearance. Suppression is defined as a transient decrease in the parasite count post-treatment without clearance.

SMILES: Nc1nc2c(CN3CC(O)C(CO)C3)c[nH]c2c(=O)[nH]1 (stereo not shown) [BCX4945, 4′-deaza-1′-aza-2′-deoxy-1′-(9-methylene)-Immucillin-G]
- Blood Urea Nitrogen (day 8): 14.7 mg/dL
- Creatine (day 8): 0.5 mg/dL
- Erythrocytes (day 8): 4.72e+06 µL⁻¹
- Glutamate Pyruvate Transaminase (day 8): 18.8 U/L
- Granulocytes (%) (day 8): 14.6%
- Granulocytes (x 103/ul) (day 8): 2.8 x 103/ul
- Hematocrit (day 8): 36.6%
- Hemoglobin (day 8): 12.9 g/dL
- Leucocytes (day 8): 18900 µL⁻¹
- Lymphocytes (%) (day 8): 74.4%
- Lymphocytes (x 103/ul) (day 8): 14.1 x 103/ul
- Mean Corpuscular Volume (day 8): 77.6 fL
- Mean Hemoglobin Content (day 8): 35.3 g/dL
- Mean Platelet Volume (day 8): 11.8 fL
- Monocytes (%) (day 8): 11%
- Monocytes (x 103/ul) (day 8): 2.1 x 103/ul
- Platelets (day 8): 276000 µL⁻¹
- Red Cell Distribution Width (day 8): 16.9%
- Reticulocytes (day 8): 1.8%
- WEIGHT (day 8): 820 g
- Blood Urea Nitrogen (day 12): 12.6 mg/dL
- Creatine (day 12): 0.5 mg/dL
- Erythrocytes (day 12): 4.24e+06 µL⁻¹
- Glutamate Pyruvate Transaminase (day 12): 48.0 U/L
- Granulocytes (%) (day 12): 20%
- Granulocytes (x 103/ul) (day 12): 2.6 x 103/ul
- Hematocrit (day 12): 33.5%
- Hemoglobin (day 12): 11.4 g/dL
- Leucocytes (day 12): 13200 µL⁻¹
- Lymphocytes (%) (day 12): 68.9%
- Lymphocytes (x 103/ul) (day 12): 9.1 x 103/ul
- Mean Corpuscular Hemoglobin (day 12): 27 pg
- Mean Corpuscular Volume (day 12): 78.9 fL
- Mean Hemoglobin Content (day 12): 34.2 g/dL
- Mean Platelet Volume (day 12): 9.6 fL
- Monocytes (%) (day 12): 11.1%
- Monocytes (x 103/ul) (day 12): 1.5 x 103/ul
- Platelets (day 12): 264000 µL⁻¹
- Red Cell Distribution Width (day 12): 20.2%
- Reticulocytes (day 12): 3.8%
- WEIGHT (day 12): 840 g
- Blood Urea Nitrogen (day 15): 13.8 mg/dL
- Creatine (day 15): 0.5 mg/dL
- Erythrocytes (day 15): 4.68e+06 µL⁻¹
- Glutamate Pyruvate Transaminase (day 15): 29.1 U/L
- Granulocytes (%) (day 15): 11.9%
- Granulocytes (x 103/ul) (day 15): 3.4 x 103/ul
- Hematocrit (day 15): 38.8%
- Hemoglobin (day 15): 13.6 g/dL
- Leucocytes (day 15): 28300 µL⁻¹
- Lymphocytes (%) (day 15): 78.1%
- Lymphocytes (x 103/ul) (day 15): 22.1 x 103/ul
- Mean Corpuscular Hemoglobin (day 15): 29 pg
- Mean Corpuscular Volume (day 15): 83 fL
- Mean Hemoglobin Content (day 15): 34.9 g/dL
- Mean Platelet Volume (day 15): 12.8 fL
- Monocytes (%) (day 15): 10%
- Monocytes (x 103/ul) (day 15): 2.8 x 103/ul
- Platelets (day 15): 258000 µL⁻¹
- Red Cell Distribution Width (day 15): 23.1%
- Reticulocytes (day 15): 2.6%
- WEIGHT (day 15): 830 g
- Blood Urea Nitrogen (day 18): 15.2 mg/dL
- Creatine (day 18): 0.5 mg/dL
- Erythrocytes (day 18): 4.88e+06 µL⁻¹
- Glutamate Pyruvate Transaminase (day 18): 22.3 U/L
- Granulocytes (%) (day 18): 15.5%
- Granulocytes (x 103/ul) (day 18): 2.7 x 103/ul
- Hematocrit (day 18): 40.6%
- Hemoglobin (day 18): 13.7 g/dL
- Leucocytes (day 18): 17100 µL⁻¹
- Lymphocytes (%) (day 18): 78%
- Lymphocytes (x 103/ul) (day 18): 13.3 x 103/ul
- Mean Corpuscular Hemoglobin (day 18): 28.1 pg
- Mean Corpuscular Volume (day 18): 83.2 fL
- Mean Hemoglobin Content (day 18): 33.8 g/dL
- Mean Platelet Volume (day 18): 12.1 fL
- Monocytes (%) (day 18): 6.5%
- Monocytes (x 103/ul) (day 18): 1.1 x 103/ul
- Platelets (day 18): 247000 µL⁻¹
- Red Cell Distribution Width (day 18): 22.6%
- Reticulocytes (day 18): 2.2%
- WEIGHT (day 18): 820 g
- Erythrocytes (day 25): 4.04e+06 µL⁻¹
- Granulocytes (%) (day 25): 11.4%
- Granulocytes (x 103/ul) (day 25): 2.3 x 103/ul
- Hematocrit (day 25): 34.8%
- Leucocytes (day 25): 19900 µL⁻¹
- Lymphocytes (%) (day 25): 79.1%
- Lymphocytes (x 103/ul) (day 25): 15.7 x 103/ul
- Mean Corpuscular Hemoglobin (day 25): 27.6 pg
